Assay results reported in patent US20250269072A1, “PROCESSES FOR PREPARING RADIOLABELLED CONJUGATES” (CENTENARY INSTITUTE OF CANCER MEDICINE AND CELL BIOLOGY, priority 2021, published 2025).
Several values for one entry are separate records, joined by “and”; a condition that tells them apart may be missing. Equal entries are not always repeated.

Legend:
[1] = Human radiation dosimetry estimated from rat biodistribution (OLINDA/EXM); type: in vivo, human (standard adult male); details: from rat data
Method: For the voiding bladder model it was assumed that patients would void 1 hour following administration.

tumour deposits = assay: Human studies: tumour uptake by PET and histological correlation; type: in vivo
From the text: patient with squamous cell carcinoma of the oesophagus • 2. Person with metastatic ovarian carcinoma • 3. Person with metastatic cutaneous squamous cell carcinoma • 4. Person with invasive ductal breast carcinoma.
Whilst blood pool and clearance are reproducible, tumour uptake and clearance vary by tumour type.
Dissected tumours were fixed in formalin, embedded in paraffin and 4 μm thick sections were cut. Adjacent sections were stained for apoptotic cells using TUNEL (Abcam, Cat #206386) or morphology using haematoxylin and eosin. For TUNEL staining, sections were deparaffinized in xylene, rehydrated in decreasing concentrations of ethanol and permeabilized with Proteinase K for 20 min at room temperature. The endogenous peroxidase activity was quenched with 3% H2O2 for 5 min. Apoptotic cells were labelled with biotinylated terminal deoxynucleotidyl transferase at 37° C. in a humidified chamber for 2 h followed by a 30 min incubation with streptavidin-HRP conjugate. HRP-positive cells were developed using diaminobenzidine and sections counterstained with methyl green (Sigma). Whole sections were imaged using PowerMosaic scanning at 10× magnification on a Leica DM6000D microscope.

O=C(O)CNC(=O)[C@H](CSCC(=O)Nc1ccc([As](O)O)cc1)NC(=O)CC[C@H](NC(=O)CCC1C(=O)[O][68Ga]2[O]C(=O)CN3CCN(CCN1CC3)CC(=O)[O]2)C(=O)O (stereo partly shown) [^68Ga-NODAGA-GSAO]
Alpha dose ([1]; Adrenals): 0.00E000 mSv/MBq
Beta dose ([1]; Adrenals): 2.13E−03 mSv/MBq
ED Cont. ([1]; Adrenals): 2.01E−05 mSv/MBq
Total dose ([1]; Adrenals): 4.02E−03 mSv/MBq
Alpha dose ([1]; Brain): 0.00E000 mSv/MBq
Beta dose ([1]; Brain): 8.15E−04 mSv/MBq
ED Cont. ([1]; Brain): 6.94E−06 mSv/MBq
Total dose ([1]; Brain): 1.39E−03 mSv/MBq
Alpha dose ([1]; Breasts): 0.00E000 mSv/MBq
Beta dose ([1]; Breasts): 2.13E−03 mSv/MBq
ED Cont. ([1]; Breasts): 1.51E−04 mSv/MBq
Total dose ([1]; Breasts): 3.02E−03 mSv/MBq
Alpha dose ([1]; Gallbladder Wall): 0.00E000 mSv/MBq
Beta dose ([1]; Gallbladder Wall): 2.13E−03 mSv/MBq
ED Cont. ([1]; Gallbladder Wall): 0.00E000 mSv/MBq
Total dose ([1]; Gallbladder Wall): 4.28E−03 mSv/MBq
Alpha dose ([1]; Heart Wall): 0.00E000 mSv/MBq
Beta dose ([1]; Heart Wall): 3.09E−03 mSv/MBq
ED Cont. ([1]; Heart Wall): 0.00E000 mSv/MBq
Photon dose ([1]; Heart Wall): 1.55E−03 mSv/MBq
Total dose ([1]; Heart Wall): 4.65E−03 mSv/MBq
Alpha dose ([1]; Kidneys): 0.00E000 mSv/MBq
Beta dose ([1]; Kidneys): 2.27E−02 mSv/MBq
ED Cont. ([1]; Kidneys): 1.31E−04 mSv/MBq
Photon dose ([1]; Kidneys): 3.56E−03 mSv/MBq
Total dose ([1]; Kidneys): 2.62E−02 mSv/MBq
Alpha dose ([1]; LLI Wall): 0.00E000 mSv/MBq
Beta dose ([1]; LLI Wall): 2.13E−03 mSv/MBq
ED Cont. ([1]; LLI Wall): 8.67E−04 mSv/MBq
Total dose ([1]; LLI Wall): 7.23E−03 mSv/MBq
Alpha dose ([1]; Liver): 0.00E000 mSv/MBq
Beta dose ([1]; Liver): 4.76E−03 mSv/MBq
ED Cont. ([1]; Liver): 3.40E−04 mSv/MBq
Photon dose ([1]; Liver): 2.04E−03 mSv/MBq
Total dose ([1]; Liver): 6.80E−03 mSv/MBq
Alpha dose ([1]; Lungs): 0.00E000 mSv/MBq
Beta dose ([1]; Lungs): 5.42E−03 mSv/MBq
ED Cont. ([1]; Lungs): 8.16E−04 mSv/MBq
Total dose ([1]; Lungs): 6.80E−03 mSv/MBq
Alpha dose ([1]; Muscle): 0.00E000 mSv/MBq
ED Cont. ([1]; Muscle): 2.09E−05 mSv/MBq
Total dose ([1]; Muscle): 4.18E−03 mSv/MBq
Alpha dose ([1]; Osteogenic Cells): 0.00E000 mSv/MBq
Beta dose ([1]; Osteogenic Cells): 3.31E−03 mSv/MBq
ED Cont. ([1]; Osteogenic Cells): 4.98E−05 mSv/MBq
Total dose ([1]; Osteogenic Cells): 4.98E−03 mSv/MBq
Alpha dose ([1]; Ovaries): 0.00E000 mSv/MBq
Beta dose ([1]; Ovaries): 2.13E−03 mSv/MBq
ED Cont. ([1]; Ovaries): 1.40E−03 mSv/MBq
Total dose ([1]; Ovaries): 7.02E−03 mSv/MBq
Alpha dose ([1]; Pancreas): 0.00E000 mSv/MBq
Beta dose ([1]; Pancreas): 3.87E−03 mSv/MBq
ED Cont. ([1]; Pancreas): 2.95E−05 mSv/MBq
Total dose ([1]; Pancreas): 5.90E−03 mSv/MBq
Alpha dose ([1]; Red Marrow): 0.00E000 mSv/MBq
Beta dose ([1]; Red Marrow): 1.49E−03 mSv/MBq
ED Cont. ([1]; Red Marrow): 4.05E−04 mSv/MBq
Total dose ([1]; Red Marrow): 3.38E−03 mSv/MBq
Alpha dose ([1]; Skin): 0.00E000 mSv/MBq
Beta dose ([1]; Skin): 2.13E−03 mSv/MBq
ED Cont. ([1]; Skin): 3.19E−05 mSv/MBq
Total dose ([1]; Skin): 3.19E−03 mSv/MBq
Alpha dose ([1]; Small Intestine): 0.00E000 mSv/MBq
Beta dose ([1]; Small Intestine): 5.18E−03 mSv/MBq
ED Cont. ([1]; Small Intestine): 4.10E−05 mSv/MBq
Photon dose ([1]; Small Intestine): 3.03E−03 mSv/MBq
Total dose ([1]; Small Intestine): 8.21E−03 mSv/MBq
Alpha dose ([1]; Spleen): 0.00E000 mSv/MBq
Beta dose ([1]; Spleen): 4.05E−03 mSv/MBq
ED Cont. ([1]; Spleen): 2.95E−05 mSv/MBq
Total dose ([1]; Spleen): 5.91E−03 mSv/MBq
Alpha dose ([1]; Stomach Wall): 0.00E000 mSv/MBq
Beta dose ([1]; Stomach Wall): 2.61E−03 mSv/MBq
ED Cont. ([1]; Stomach Wall): 5.06E−04 mSv/MBq
Photon dose ([1]; Stomach Wall): 1.61E−03 mSv/MBq
Total dose ([1]; Stomach Wall): 4.22E−03 mSv/MBq
Alpha dose ([1]; Testes): 0.00E000 mSv/MBq
Beta dose ([1]; Testes): 2.21E−03 mSv/MBq
ED Cont. ([1]; Testes): 0.00E000 mSv/MBq
Total dose ([1]; Testes): 5.69E−03 mSv/MBq
Alpha dose ([1]; Thymus): 0.00E000 mSv/MBq
Beta dose ([1]; Thymus): 4.48E−03 mSv/MBq
ED Cont. ([1]; Thymus): 2.92E−05 mSv/MBq
Total dose ([1]; Thymus): 5.84E−03 mSv/MBq
Alpha dose ([1]; Thyroid): 0.00E000 mSv/MBq
Beta dose ([1]; Thyroid): 2.13E−03 mSv/MBq
ED Cont. ([1]; Thyroid): 1.64E−04 mSv/MBq
Total dose ([1]; Thyroid): 3.28E−03 mSv/MBq
Alpha dose ([1]; Total Body): 0.00E000 mSv/MBq
Beta dose ([1]; Total Body): 2.68E−03 mSv/MBq
ED Cont. ([1]; Total Body): 0.00E000 mSv/MBq
Total dose ([1]; Total Body): 4.61E−03 mSv/MBq
Alpha dose ([1]; ULI Wall): 0.00E000 mSv/MBq
Beta dose ([1]; ULI Wall): 2.53E−03 mSv/MBq
ED Cont. ([1]; ULI Wall): 2.58E−05 mSv/MBq
Photon dose ([1]; ULI Wall): 2.63E−03 mSv/MBq
Total dose ([1]; ULI Wall): 5.18E−03 mSv/MBq
Alpha dose ([1]; Urinary Bladder Wall): 0.00E000 mSv/MBq
Beta dose ([1]; Urinary Bladder Wall): 2.84E−01 mSv/MBq
ED Cont. ([1]; Urinary Bladder Wall): 1.62E−02 mSv/MBq
Total dose ([1]; Urinary Bladder Wall): 3.24E−01 mSv/MBq
Alpha dose ([1]; Uterus): 0.00E000 mSv/MBq
Beta dose ([1]; Uterus): 2.13E−03 mSv/MBq
ED Cont. ([1]; Uterus): 5.77E−05 mSv/MBq
Total dose ([1]; Uterus): 1.15E−02 mSv/MBq
dose to urinary bladder wall (dose limiting organ) [1]: 0.32 mSv/MBq
whole body effective dose [1]: 2.13E-02 mSv/MBq and 0.021 mSv/MBq
whole body effective dose ([1]; injected activity 150 MBq): 3.2 mSv
tumour uptake SUVmean (tumour deposits; breast carcinoma): 1.8
correlation of tumour uptake with dead and dying cells (tumour deposits; histopathology): correlate with the proportion of dead and dying cells within the tumour
tumour uptake SUVmean (tumour deposits; metastatic cutaneous squamous cell carcinoma): 4.1
tumour uptake SUVmean (tumour deposits; metastatic ovarian carcinoma): 1.9
tumour uptake SUVmean (tumour deposits; patient 3, right axillary nodal metastasis): 4.1
tumour uptake SUVmean (tumour deposits; squamous cell carcinoma of the oesophagus): 3.8
tumour uptake relative to blood pool (tumour deposits; tumours with high uptake): up to 2 fold
